In patent publication US11384075B2, “Quinolinone compounds” (Janssen Pharmaceutica NV, priority 2017, dated 2022):
Like-named read-outs stand apart in the source and are kept apart here.

Experiments:
[1] = molecular target: T1, human FGFR3 V555M enzyme (cytoplasmic domain carrying V555M mutation) (Homo sapiens, UniProt P22607, V555M); experiment: FGFR3 V555M mobility shift assay (enzymatic assay); assay type: biochemical; details: 30 μM ATP, 45 minutes at 30° C., Caliper EZ reader II
T1 construct: human FGFR3 V555M enzyme (cytoplasmic domain carrying V555M mutation, from Carna Biosciences); purchased Carna Biosciences
T1 sequence (P22607 397-806 V555M limits assumed): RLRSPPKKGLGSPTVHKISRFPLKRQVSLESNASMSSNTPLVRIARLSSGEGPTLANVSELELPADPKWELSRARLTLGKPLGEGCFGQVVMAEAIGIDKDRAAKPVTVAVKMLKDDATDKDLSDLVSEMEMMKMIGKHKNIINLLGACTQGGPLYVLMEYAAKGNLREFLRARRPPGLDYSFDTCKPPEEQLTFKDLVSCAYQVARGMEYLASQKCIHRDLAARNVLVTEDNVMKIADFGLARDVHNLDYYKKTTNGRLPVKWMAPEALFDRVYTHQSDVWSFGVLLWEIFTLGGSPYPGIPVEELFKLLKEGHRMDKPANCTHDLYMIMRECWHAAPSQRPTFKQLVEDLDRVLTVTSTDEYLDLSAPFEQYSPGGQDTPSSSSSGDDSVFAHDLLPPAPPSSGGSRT
In short: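 Cytoplasmic-domain FGFR3 V555M (0.04 ng/μL) with 30 μM ATP and 1 μM FL-peptide 30 in HEPES pH 7.4/MgCl2/Brij35/DTT, 1% DMSO, 45 min at 30 °C, EDTA-stopped. Mobility-shift read of substrate-product conversion; 10-point 4× dilution from 10 μM fitted for IC50/pIC50.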

[2] = molecular target: T2, human FGFR3 V555L enzyme (cytoplasmic domain carrying V555L mutation) (Homo sapiens, UniProt P22607, V555L); experiment: FGFR3 V555L mobility shift assay (enzymatic assay); assay type: biochemical; details: 40 μM ATP, 50 minutes at 30° C., Caliper EZ reader II
T2 construct: human FGFR3 V555L enzyme (cytoplasmic domain carrying V555L mutation, from Carna Biosciences); purchased Carna Biosciences
T2 sequence (P22607 397-806 V555L limits assumed): as the sequence (P22607 397-806 V555M limits assumed) above, with M159L counted along it
Method: FGFR3 V555L Mobility Shift Assay (Enzymatic Assay)
In a final reaction volume of 25 μL, 0.04 ng/μL human FGFR3 V555L enzyme (cytoplasmic domain carrying V555L mutation, from Carna Biosciences) was incubated with 40 μM ATP, 1 μM FL-peptide 30 substrate and 250 nL of testing compound (1% DMSO final) in assay buffer (100 mM HEPES pH 7.4, 10 mM MgCl2, 0.003% Brij35, 1 mM DTT). After incubation for 50 minutes at 30° C. the reaction was stopped with 10 μL of 0.5M EDTA pH 8.0, and then 25 μL of reaction mixture was transferred to reading plate and measured on Caliper EZ reader II. The substrate-product conversion rate was used as raw data for normalization and concentration-response curve (10 dose points with 4× serial dilution, starting with 10 μM) was plotted using Prism to calculate IC50 (M), pIC50 (−log IC50) and HillSlope value.

[3] = molecular target: T3, human FGFR3 wild type enzyme (cytoplasmic domain) (Homo sapiens, UniProt P22607); experiment: FGFR3 wild type mobility shift assay (enzymatic assay); assay type: biochemical; details: 75 μM ATP, 50 minutes at 30° C., Caliper EZ reader II
T3 construct: human FGFR3 wild type enzyme (cytoplasmic domain, from Carna Biosciences); purchased Carna Biosciences
T3 sequence (P22607 397-806 limits assumed): as the sequence (P22607 397-806 V555M limits assumed) above, with M159V counted along it
In short: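 Cytoplasmic domain of human wild-type FGFR3 (0.04 ng/μL) with 75 μM ATP and 1 μM FL-peptide 30, pH 7.4 HEPES/MgCl2 buffer, 1% DMSO, 50 min at 30 °C, EDTA-stopped. Substrate-product conversion read by mobility shift. IC50, pIC50 and Hill slope from 10-point 4-fold dilutions starting at 10 μM.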

[4] = tested on: NIH/3T3 cells transfected with the same control vector; experiment: NIH/3T3 mock cell proliferation assay (counter assay, general toxicity); assay type: cell-based; details: 72-hr incubation, CellTiter Glo, starting with 30 μM, counter assay for general toxicity, read-out: NIH/3T3 MOCK CTG (IC50)
In short: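 Control-vector NIH/3T3 cells, 30,000/well in DMEM with 10% FBS, exposed 72 h at 37 °C to compound (9 points, 3-fold from 30 μM, 0.3% DMSO). CellTiter-Glo luminescence normalized to survival %; IC50, pIC50 and Hill slope from concentration-response fit.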

[5] = molecular target: T4, NIH/3T3 cells overexpressing FGFR3 V555M-TACC3 fusion protein (Homo sapiens, UniProt P22607, V555M, cells depend on it); experiment: NIH/3T3 FGFR3 V555M-TACC3 cell proliferation assay; assay type: cell-based; details: 72-hr incubation, CellTiter Glo, starting with 10 μM; read-out: NIH/3T3 FGFR3 V555M-TACC3 CTG (IC50)
T4 construct: NIH/3T3 FGFR3 V555M-TACC3 CTG (IC50); other: 72-hr incubation, CellTiter Glo, starting with 10 μM; fused on or other part: Q9Y6A5 (Transforming acidic coiled-coil-containing protein 3)
T4 sequence (P22607 whole entry V555M, the tested form may be a part): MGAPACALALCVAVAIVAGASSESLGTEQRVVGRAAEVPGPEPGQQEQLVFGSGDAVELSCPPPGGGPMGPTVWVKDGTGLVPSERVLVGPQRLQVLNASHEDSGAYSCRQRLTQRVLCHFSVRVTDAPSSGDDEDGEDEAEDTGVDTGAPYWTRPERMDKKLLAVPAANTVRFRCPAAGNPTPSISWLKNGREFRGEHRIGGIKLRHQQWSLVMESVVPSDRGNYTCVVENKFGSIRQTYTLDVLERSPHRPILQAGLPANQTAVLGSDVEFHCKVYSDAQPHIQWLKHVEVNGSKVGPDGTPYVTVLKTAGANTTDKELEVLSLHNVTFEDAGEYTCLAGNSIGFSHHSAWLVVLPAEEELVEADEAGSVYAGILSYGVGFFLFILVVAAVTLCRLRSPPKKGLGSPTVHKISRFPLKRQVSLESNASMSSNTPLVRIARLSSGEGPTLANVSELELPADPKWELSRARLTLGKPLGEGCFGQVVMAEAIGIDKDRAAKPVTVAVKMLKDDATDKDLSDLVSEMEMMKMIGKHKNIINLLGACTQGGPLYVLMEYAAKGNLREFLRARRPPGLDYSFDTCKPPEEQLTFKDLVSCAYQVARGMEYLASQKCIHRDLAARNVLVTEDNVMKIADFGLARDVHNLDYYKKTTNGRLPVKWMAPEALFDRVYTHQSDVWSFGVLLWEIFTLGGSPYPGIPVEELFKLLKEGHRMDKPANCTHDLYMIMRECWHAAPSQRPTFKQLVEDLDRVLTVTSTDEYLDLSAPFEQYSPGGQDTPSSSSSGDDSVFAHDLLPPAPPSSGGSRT
In short: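 NIH/3T3 cells overexpressing FGFR3 V555M-TACC3 fusion, 30,000/well in DMEM/10% FBS, treated for 72 h at 37 °C with 9 doses (4× dilutions from 10 μM top, 0.1% DMSO). CellTiter-Glo luminescence normalised to % survival; IC50, pIC50 and Hill slope from concentration-response fits.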

[6] = molecular target: T5, NIH/3T3 cells overexpressing FGFR3 WT-TACC3 fusion protein (Homo sapiens, UniProt P22607); experiment: NIH/3T3 FGFR3 WT-TACC3 cell proliferation assay; assay type: cell-based; details: 72-hr incubation, CellTiter Glo, starting with 10 μM; read-out: NIH/3T3 FGFR3 WT-TACC3 CTG (IC50)
T5 construct: NIH/3T3 FGFR3 WT-TACC3 CTG (IC50); other: 72-hr incubation, CellTiter Glo, starting with 10 μM; fused on or other part: Q9Y6A5 (Transforming acidic coiled-coil-containing protein 3)
T5 sequence (P22607 whole entry, change not shown, the tested form may be a part): as the sequence (P22607 whole entry V555M, the tested form may be a part) above, with M555V counted along it
In short: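 Cells seeded overnight, then exposed 72 h at 37 °C to compound in 9-point 4-fold dilutions from 10 μM (0.1% DMSO final). Viability read by CellTiter-Glo luminescence, normalized to survival %; IC50, pIC50 and Hill slope from concentration-response fit.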

| IC50 [1] [nM] | IC50 [2] [nM] | IC50 [3] [nM] | GI50 [5] [nM] | GI50 [6] [nM] | Structure (SMILES) | IC50 ([4]; Mus musculus, NIH3T3, 72 h) [nM] | IC50 [4] [nM] |
| --- | --- | --- | --- | --- | --- | --- | --- |
| 0.263 | 0.504 | 0.369 |  |  | C[C@H](Nc1c(-c2nc3ccc(OC4CCN(C)CC4)cc3[nH]2)c(=O)[nH]c2ccccc12)c1ccccn1 [Compound 64, (S)-3-(6-((1-Methylpiperidin-4-yl)oxy)-1H-benzo[d]imidazol-2-yl)-4-((1-(pyridin-2-yl)-ethyl)amino)quinolin-2(1H)-one] |  |  |
| 0.0676 | 0.135 | 0.128 | 10.7 |  | CC(C)N1CCN(c2ccc3nc(-c4c(N[C@@H](C)c5ccccn5)c5ccccc5[nH]c4=O)[nH]c3c2)CC1 [Compound 56, (S)-3-(6-(4-isopropylpiperazin-1-yl)-1H-benzo[d]imidazol-2-yl)-4-((1-(pyridin-2-yl)-ethyl)amino)quinolin-2(1H)-one] | 770 |  |
| 0.538 | 1.25 | 1.76 | 34.3 |  | C[C@H](Nc1c(-c2nc3ccc(N4CCOCC4)cc3[nH]2)c(=O)[nH]c2ccccc12)c1ccccn1 [Compound 55, (S)-3-(6-Morpholino-1H-benzo[d]imidazol-2-yl)-4-((1-(pyridin-2-yl)ethyl)amino)-quinolin-2(1H)-one] | 460 |  |
| 1.21 |  | 2.91 | 451 | 389 | COC(=O)C1CN(c2ccc3nc(-c4c(N[C@@H](C)c5ccccn5)c5ccccc5[nH]c4=O)[nH]c3c2)CCO1 (single isomer, unassigned) [Compound 62, (R*)-methyl 4-(2-(2-oxo-4-(((S)-1-(pyridin-2-yl)ethyl)amino)-1,2-dihydroquinolin-3-yl)-1H-benzo[d]imidazol-6-yl)morpholine-2-carboxylate] |  | 12700 |
| 0.168 |  | 0.313 | 1.85 | 3.15 | C[C@@H]1CN(c2ccc3nc(-c4c(N[C@@H](C)c5ncccn5)c5ccccc5[nH]c4=O)[nH]c3c2)CCO1 (single isomer, unassigned) [Compound 40a] | 2480 |  |
| 0.603 |  | 1.18 | 1620 | 1280 | C[C@H](Nc1c(-c2nc3ccc(N4CCOC(C(=O)O)C4)cc3[nH]2)c(=O)[nH]c2ccccc12)c1ccccn1 (mixture of isomers) [Compound 60, (Rac)-4-(2-(2-oxo-4-(((S)-1-(pyridin-2-yl)ethyl)amino)-1,2-dihydroquinolin-3-yl)-1H-benzo[d]imidazol-6-yl)morpholine-2-carboxylic acid] | > 30000 |  |
| 0.178 |  | 0.317 | 4.3 | 2.22 | CC(Nc1c(-c2nc3ccc(N4CCO[C@@H](C)C4)cc3[nH]2)c(=O)[nH]c2ccccc12)c1ncccn1 (single isomer, unassigned) [Compound 26a, 3-(6-((S)-2-methylmorpholino)-1H-benzo[d]imidazol-2-yl)-4-(((S*)-1-(pyrimidin-2-yl)-ethyl)amino)quinolin-2(1H)-one] | 2580 |  |
| 0.359 |  | 0.788 | 61.7 | 31.9 | COC(=O)C1CN(c2ccc3nc(-c4c(N[C@@H](C)c5ccccn5)c5ccccc5[nH]c4=O)[nH]c3c2)CCO1 (mixture of isomers) [Compound 59, (Rac)-methyl 4-(2-(2-oxo-4-(((S)-1-(pyridin-2-yl)ethyl)amino)-1,2-dihydroquinolin-3-yl)-1H-benzo[d]imidazol-6-yl)morpholine-2-carboxylate] | 7290 |  |

Second part, the compound before the results:

| Structure (SMILES) | IC50 [1] [nM] | IC50 [2] [nM] | IC50 [3] [nM] | GI50 [5] [nM] | GI50 [6] [nM] | IC50 ([4]; Mus musculus, NIH3T3, 72 h) [nM] | IC50 [4] [nM] |
| --- | --- | --- | --- | --- | --- | --- | --- |
| CC(Nc1c(-c2nc3ccc(N4CCOCC4)cc3[nH]2)c(=O)[nH]c2ccccc12)c1cocn1 (single isomer, unassigned) [Compound 51a, (S*)-3-(6-morpholino-1H-benzo[d]imidazol-2-yl)-4-((1-(oxazol-4-yl)ethyl)amino)-quinolin-2(1H)-one] | 0.237 |  | 1.31 | 30.2 | 30.1 | 1180 |  |
| CC(Nc1c(-c2nc3ccc(N4C[C@@H](C)O[C@@H](C)C4)cc3[nH]2)c(=O)[nH]c2ccccc12)c1ncccn1 (single isomer, unassigned) [Compound 22a, 3-(6-((2S,6R)-2,6-dimethylmorpholino)-1H-benzo[d]imidazol-2-yl)-4-(((S*)-1-(pyrimidin-2-yl)ethyl)amino)quinolin-2(1H)-one] | 0.421 |  | 0.445 | 6.48 | 13.3 | 6390 |  |
| CC(Nc1c(-c2nc3cc(F)c(N4CCOCC4)cc3[nH]2)c(=O)[nH]c2ccccc12)c1ncccn1 (single isomer, unassigned) [Compound 27a, (S*)-3-(5-fluoro-6-morpholino-1H-benzo[d]imidazol-2-yl)-4-((1-(pyrimidin-2-yl)-ethyl)amino)quinolin-2(1H)-one] | 0.255 |  | 0.445 | 5.8 | 6.93 | 3880 |  |
| CC(Nc1c(-c2nc3ccc(N4C[C@@H](C)O[C@H](C)C4)cc3[nH]2)c(=O)[nH]c2ccccc12)c1ncccn1 (single isomer, unassigned) [Compound 37a, 3-(6-((2R,6R)-2,6-dimethylmorpholino)-1H-benzo[d]imidazol-2-yl)-4-(((S*)-1-(pyrimidin-2-yl)ethyl)amino)quinolin-2(1H)-one] | 0.326 |  | 0.478 | 4.18 | 11.7 | 898 |  |
| CC(Nc1c(-c2nc3ccc(N4CCOCC4)cc3[nH]2)c(=O)[nH]c2ccccc12)c1cscn1 (single isomer, unassigned) [Compound 52a, (S*)-3-(6-morpholino-1H-benzo[d]imidazol-2-yl)-4-((1-(thiazol-4-yl)ethyl)amino)-quinolin-2(1H)-one] | 0.208 |  | 0.858 | 6.69 | 23.1 | 1430 |  |
| CC(Nc1c(-c2nc3ccc(-c4cnn(C)c4)cc3[nH]2)c(=O)[nH]c2ccccc12)c1ncccn1 (single isomer, unassigned) [Compound 53a, (S*)-3-(6-(1-methyl-1H-pyrazol-4-yl)-1H-benzo[d]imidazol-2-yl)-4-((1-(pyrimidin-2-yl)ethyl)amino)quinolin-2(1H)-one] | 0.186 |  | 0.47 | 8.64 | 9.9 | 1690 |  |
| Cc1ccnc(C(C)Nc2c(-c3nc4ccc(N5CCOCC5)cc4[nH]3)c(=O)[nH]c3ccccc23)n1 (single isomer, unassigned) [Compound 34a, (S*)-4-((1-(4-methylpyrimidin-2-yl)ethyl)amino)-3-(6-morpholino-1H-benzo[d]imidazol-2-yl)quinolin-2(1H)-one] | 1.59 |  | 9 | 70.4 | 43.1 | 1320 |  |
